Reference: article PMC5218480 (PLoS ONE, 2017)

Tested on: MV-4-11 cells
Experiment: Gene expression microarray analysis (Affymetrix PrimeView) and GSEA
Assay type: cell-based, human
Parameters: RFU PODN (11730768_x_at) / Fold change /veh PODN (11730768_x_at) / RFU LINC00158 (11744669_a_at) / Fold change /veh LINC00158 (11744669_a_at) / RFU DUSP10 (11751237_a_at) / Fold change /veh DUSP10 (11751237_a_at) / RFU ID3 (11757404_x_at) / Fold change /veh ID3 (11757404_x_at) / RFU PLEKHG5 (11737974_s_at) / Fold change /veh PLEKHG5 (11737974_s_at) / RFU LRRC4B (11730491_at) / Fold change /veh LRRC4B (11730491_at) / RFU GIMAP4 (11747438_a_at) / Fold change /veh GIMAP4 (11747438_a_at) / RFU KRT8 (11758183_x_at) / Fold change /veh KRT8 (11758183_x_at) / RFU CNN1 (11734310_a_at) / Fold change /veh CNN1 (11734310_a_at) / RFU VPS37D (11726825_at) / Fold change /veh VPS37D (11726825_at) / RFU C10orf10 (11716522_x_at) / Fold change /veh C10orf10 (11716522_x_at) / RFU KIR2DL2 /// KIR2DL4 /// KIR2DL5A /// KIR2DL5B /// KIR2DS1 /// KIR2DS2 /// KIR2DS3 /// KIR2DS4 /// KIR3DL3 /// KIR3DL3 /// KIR3DS1 (11738374_at) / Fold change /veh KIR2DL2 /// KIR2DL4 /// KIR2DL5A /// KIR2DL5B /// KIR2DS1 /// KIR2DS2 /// KIR2DS3 /// KIR2DS4 /// KIR3DL3 /// KIR3DL3 /// KIR3DS1 (11738374_at) / RFU C1QL1 (11718748_at) / Fold change /veh C1QL1 (11718748_at) / RFU TMPRSS4 (11747572_a_at) / Fold change /veh TMPRSS4 (11747572_a_at) / RFU HAMP (11756126_x_at) / Fold change /veh HAMP (11756126_x_at) / RFU RNFT2 (11725882_a_at) / Fold change /veh RNFT2 (11725882_a_at) / RFU NR4A2 (11747474_a_at) / Fold change /veh NR4A2 (11747474_a_at) / RFU ABCC12 (11746883_a_at) / Fold change /veh ABCC12 (11746883_a_at) / RFU TMEM136 (11760407_x_at) / Fold change /veh TMEM136 (11760407_x_at) / RFU CLDN22 /// WWC2 (11732394_at) / Fold change /veh CLDN22 /// WWC2 (11732394_at) / RFU HLA-DPB1 (11760878_x_at) / Fold change /veh HLA-DPB1 (11760878_x_at) / RFU SPINT1 (11716480_a_at) / Fold change /veh SPINT1 (11716480_a_at) / RFU GAP43 (11754022_s_at) / Fold change /veh GAP43 (11754022_s_at) / RFU A4GNT (11735810_at) / Fold change /veh A4GNT (11735810_at) / RFU PRB3 (11715151_x_at) / Fold change /veh PRB3 (11715151_x_at) / RFU TUBB4B (11761932_at) / Fold change /veh TUBB4B (11761932_at) / RFU CAPN14 (11732068_a_at) / Fold change /veh CAPN14 (11732068_a_at) / RFU TMCC2 (11721928_a_at) / Fold change /veh TMCC2 (11721928_a_at) / RFU IRGQ (11745062_a_at) / Fold change /veh IRGQ (11745062_a_at) / RFU FAM174B (11720279_a_at) / Fold change /veh FAM174B (11720279_a_at) / RFU TMPRSS4 (11748680_a_at) / Fold change /veh TMPRSS4 (11748680_a_at) / RFU FAM212B (11763350_a_at) / Fold change /veh FAM212B (11763350_a_at) / RFU PLEKHG5 (11743358_a_at) / Fold change /veh PLEKHG5 (11743358_a_at) / RFU ZSCAN30 (11745921_a_at) / Fold change /veh ZSCAN30 (11745921_a_at) / RFU CMKLR1 (11741424_a_at) / Fold change /veh CMKLR1 (11741424_a_at) / RFU LOC101060620 /// MAPK8IP1 (11723275_at) / Fold change /veh LOC101060620 /// MAPK8IP1 (11723275_at) / RFU SPTSSB (11747773_x_at) / Fold change /veh SPTSSB (11747773_x_at) / RFU PRSS12 (11739890_at) / Fold change /veh PRSS12 (11739890_at) / RFU BIN1 (11741810_x_at) / Fold change /veh BIN1 (11741810_x_at) / RFU WNT11 (11732464_a_at) / Fold change /veh WNT11 (11732464_a_at) / RFU C10orf10 (11716521_a_at) / Fold change /veh C10orf10 (11716521_a_at) / RFU C5orf56 (11738089_at) / Fold change /veh C5orf56 (11738089_at) / RFU CYB561 (11721691_x_at) / Fold change /veh CYB561 (11721691_x_at) / RFU ANKRD19P (11752326_a_at) / Fold change /veh ANKRD19P (11752326_a_at) / RFU OR2T12 /// OR2T33 /// OR2T8 (11738714_s_at) / Fold change /veh OR2T12 /// OR2T33 /// OR2T8 (11738714_s_at) / RFU VCAN (11748164_a_at) / Fold change /veh VCAN (11748164_a_at) / RFU JSRP1 (11732532_at) / Fold change /veh JSRP1 (11732532_at) / RFU KRTAP10-11 (11738290_x_at) / Fold change /veh KRTAP10-11 (11738290_x_at) / RFU MYO3A (11730013_a_at) / Fold change /veh MYO3A (11730013_a_at) / RFU EBF3 (11725865_a_at) / Fold change /veh EBF3 (11725865_a_at) / RFU CAMK2N1 (11719241_x_at) / Fold change /veh CAMK2N1 (11719241_x_at) / RFU C5orf56 (11738088_a_at) / Fold change /veh C5orf56 (11738088_a_at) / RFU OLFML3 (11715873_a_at) / Fold change /veh OLFML3 (11715873_a_at) / RFU LOC100653217 /// NTM (11731650_a_at) / Fold change /veh LOC100653217 /// NTM (11731650_a_at) / RFU MAPK11 (11762145_a_at) / Fold change /veh MAPK11 (11762145_a_at) / RFU FIZ1 (11724087_x_at) / Fold change /veh FIZ1 (11724087_x_at) / RFU OASL (11726364_x_at) / Fold change /veh OASL (11726364_x_at) / RFU SOX15 (11748057_x_at) / Fold change /veh SOX15 (11748057_x_at) / RFU CD79A (11719716_a_at) / Fold change /veh CD79A (11719716_a_at) / RFU HIST1H1D (11736915_at) / Fold change /veh HIST1H1D (11736915_at) / RFU CASKIN2 (11723855_a_at) / Fold change /veh CASKIN2 (11723855_a_at) / RFU LOC730098 (11760151_x_at) / Fold change /veh LOC730098 (11760151_x_at) / RFU OR4N2 (11742367_at) / Fold change /veh OR4N2 (11742367_at) / RFU PRRT2 (11749266_a_at) / Fold change /veh PRRT2 (11749266_a_at) / RFU SNX32 (11753110_a_at) / Fold change /veh SNX32 (11753110_a_at) / RFU CDHR5 (11726645_a_at) / Fold change /veh CDHR5 (11726645_a_at) / RFU RCAN1 (11760418_a_at) / Fold change /veh RCAN1 (11760418_a_at) / RFU FAM167A (11723789_a_at) / Fold change /veh FAM167A (11723789_a_at) / RFU FAM26E (11764081_at) / Fold change /veh FAM26E (11764081_at) / RFU ISYNA1 (11749810_s_at) / Fold change /veh ISYNA1 (11749810_s_at) / RFU ACY1 (11761880_at) / Fold change /veh ACY1 (11761880_at) / RFU 11764098_at / Fold change /veh 11764098_at / RFU SAMD14 (11745864_x_at) / Fold change /veh SAMD14 (11745864_x_at) / RFU NPB (11741838_a_at) / Fold change /veh NPB (11741838_a_at) / RFU TMPRSS6 (11731388_a_at) / Fold change /veh TMPRSS6 (11731388_a_at) / RFU KRTAP10-2 (11738614_at) / Fold change /veh KRTAP10-2 (11738614_at) / RFU ARHGAP8 /// PRR5-ARHGAP8 (11727945_x_at) / Fold change /veh ARHGAP8 /// PRR5-ARHGAP8 (11727945_x_at) / RFU KRTAP5-7 /// NADSYN1 (11734609_at) / Fold change /veh KRTAP5-7 /// NADSYN1 (11734609_at) / RFU RASL12 (11751679_a_at) / Fold change /veh RASL12 (11751679_a_at) / RFU CDKN2B (11736163_a_at) / Fold change /veh CDKN2B (11736163_a_at) / RFU PRF1 (11729649_at) / Fold change /veh PRF1 (11729649_at) / RFU, ZNF638 /// ZNF638-IT1 / Fold change vs veh, ZNF638 /// ZNF638-IT1 / RFU, PANK3 / Fold change vs veh, PANK3 / RFU, SH3YL1 / Fold change vs veh, SH3YL1 / RFU, ZEB2 / Fold change vs veh, ZEB2 / RFU, NRIP1 / Fold change vs veh, NRIP1 / RFU, PTTG1IP / Fold change vs veh, PTTG1IP / RFU, CAPN2 / Fold change vs veh, CAPN2 / RFU, MED14 / Fold change vs veh, MED14 / RFU, SNORA58 / Fold change vs veh, SNORA58 / RFU, C1orf63 / Fold change vs veh, C1orf63 / RFU, LRRFIP1 / Fold change vs veh, LRRFIP1 / RFU, NDUFAF7 / Fold change vs veh, NDUFAF7 / RFU, SLC12A2 / Fold change vs veh, SLC12A2 / RFU, IBTK / Fold change vs veh, IBTK / RFU, ESF1 / Fold change vs veh, ESF1 / Fold change vs veh, TMEM50B / RFU, TAOK1 / Fold change vs veh, TAOK1 / RFU, ACBD3 / Fold change vs veh, ACBD3 / RFU, TMA16 / Fold change vs veh, TMA16 / RFU, RWDD3 / Fold change vs veh, RWDD3 / RFU, BCAT1 / Fold change vs veh, BCAT1 / RFU, EDEM3 / Fold change vs veh, EDEM3 / RFU, TMEM33 / Fold change vs veh, TMEM33 / RFU, WDR75 / Fold change vs veh, WDR75 / RFU, AHCTF1 / Fold change vs veh, AHCTF1 / RFU, TFRC / Fold change vs veh, TFRC / RFU, ZDHHC17 / Fold change vs veh, ZDHHC17 / RFU, NOM1 / Fold change vs veh, NOM1 / RFU, ARL8B / Fold change vs veh, ARL8B / RFU, ZBTB11 / Fold change vs veh, ZBTB11 / RFU, TAMM41 / Fold change vs veh, TAMM41 / RFU, KIAA1704 /// LOC100996395 / Fold change vs veh, KIAA1704 /// LOC100996395 / RFU, ING1 / Fold change vs veh, ING1 / RFU, TRMT61B / Fold change vs veh, TRMT61B / RFU, FUBP3 / Fold change vs veh, FUBP3 / RFU, TP53 / Fold change vs veh, TP53 / RFU, TNKS2 / Fold change vs veh, TNKS2 / RFU, ZFP14 / Fold change vs veh, ZFP14 / RFU, ACTR2 / Fold change vs veh, ACTR2 / RFU, PPP3R1 / Fold change vs veh, PPP3R1 / RFU, PIK3R1 / Fold change vs veh, PIK3R1 / RFU, HNRNPA1 / Fold change vs veh, HNRNPA1 / RFU, RNF170 / Fold change vs veh, RNF170 / RFU, ZNF28 / Fold change vs veh, ZNF28 / RFU, RNGTT / Fold change vs veh, RNGTT / RFU, OGT / Fold change vs veh, OGT / RFU, BRD1 / Fold change vs veh, BRD1 / RFU, MARS / Fold change vs veh, MARS / RFU, ZNF655 / Fold change vs veh, ZNF655 / RFU, FAHD1 / Fold change vs veh, FAHD1 / RFU, BDP1 / Fold change vs veh, BDP1 / RFU, LRRCC1 / Fold change vs veh, LRRCC1 / RFU, ARID1A / Fold change vs veh, ARID1A / RFU, ZNF146 / Fold change vs veh, ZNF146 / RFU, ZNF330 / Fold change vs veh, ZNF330 / RFU, GPN3 / Fold change vs veh, GPN3 / RFU, C9orf123 / Fold change vs veh, C9orf123 / RFU, N4BP2L2 / Fold change vs veh, N4BP2L2 / RFU, ARFIP1 / Fold change vs veh, ARFIP1 / RFU, FAM179B / Fold change vs veh, FAM179B / RFU, BCL10 / Fold change vs veh, BCL10 / RFU, UHRF1BP1L / Fold change vs veh, UHRF1BP1L / RFU, BET1 / Fold change vs veh, BET1 / RFU, CNOT2 / Fold change vs veh, CNOT2 / RFU, ZNF268 / Fold change vs veh, ZNF268 / Fold change vs veh, ZNF507 / RFU, DGCR2 / Fold change vs veh, DGCR2 / RFU, WDSUB1 / Fold change vs veh, WDSUB1 / Fold change vs veh, HSP90B1 /// MIR3652 / RFU, ADSS / Fold change vs veh, ADSS / RFU, GK / Fold change vs veh, GK / RFU, ZNF148 / Fold change vs veh, ZNF148 / RFU, TAF9 / Fold change vs veh, TAF9 / RFU, SLC1A5 / Fold change vs veh, SLC1A5 / RFU, SLMO2 / Fold change vs veh, SLMO2 / RFU, ABCC4 / Fold change vs veh, ABCC4 / RFU, LOC101060439 /// RAP1B / Fold change vs veh, LOC101060439 /// RAP1B / RFU, RFX7 / Fold change vs veh, RFX7 / RFU, GTPBP10 / Fold change vs veh, GTPBP10 / RFU, CNEP1R1 / Fold change vs veh, CNEP1R1 / RFU, BIVM-ERCC5 /// ERCC5 / Fold change vs veh, BIVM-ERCC5 /// ERCC5 / RFU, ILF3 / Fold change vs veh, ILF3 / RFU 11762660_at / Fold change /veh 11762660_at / RFU VCAN (11757783_s_at) / Fold change /veh VCAN (11757783_s_at) / RFU DDX43 (11728927_at) / Fold change /veh DDX43 (11728927_at) / RFU KRT8 (11758188_x_at) / Fold change /veh KRT8 (11758188_x_at) / RFU NKD1 (11759106_at) / Fold change /veh NKD1 (11759106_at) / RFU SRD5A1 (11742802_a_at) / Fold change /veh SRD5A1 (11742802_a_at) / RFU TPSAB1 /// TPSB2 (11721975_s_at) / Fold change /veh TPSAB1 /// TPSB2 (11721975_s_at) / RFU GSTM3 (11746129_a_at) / Fold change /veh GSTM3 (11746129_a_at) / RFU IL23R (11737362_x_at) / Fold change /veh IL23R (11737362_x_at) / RFU TMEM51 (11727254_a_at) / Fold change /veh TMEM51 (11727254_a_at) / RFU PIWIL2 (11732686_x_at) / Fold change /veh PIWIL2 (11732686_x_at) / RFU ORM1 (11744905_x_at) / Fold change /veh ORM1 (11744905_x_at) / RFU CCDC152 (11743942_at) / Fold change /veh CCDC152 (11743942_at) / RFU ECM1 (11717891_a_at) / Fold change /veh ECM1 (11717891_a_at) / RFU IL23R (11748794_a_at) / Fold change /veh IL23R (11748794_a_at) / RFU TNFAIP8L3 (11732012_x_at) / Fold change /veh TNFAIP8L3 (11732012_x_at) / RFU MBOAT4 (11741988_at) / Fold change /veh MBOAT4 (11741988_at) / RFU 11764193_at / Fold change /veh 11764193_at / RFU TMEM53 (11763286_at) / Fold change /veh TMEM53 (11763286_at) / RFU MAGEB2 (11727129_at) / Fold change /veh MAGEB2 (11727129_at) / RFU TMEM200A (11744735_a_at) / Fold change /veh TMEM200A (11744735_a_at) / RFU CCDC152 (11751479_a_at) / Fold change /veh CCDC152 (11751479_a_at) / RFU FAM211A (11726209_a_at) / Fold change /veh FAM211A (11726209_a_at) / RFU RGS16 (11746705_a_at) / Fold change /veh RGS16 (11746705_a_at) / RFU VCAN (11755009_s_at) / Fold change /veh VCAN (11755009_s_at) / RFU RHOB (11743442_s_at) / Fold change /veh RHOB (11743442_s_at) / RFU RGS16 (11720943_a_at) / Fold change /veh RGS16 (11720943_a_at) / RFU RGS16 (11720944_at) / Fold change /veh RGS16 (11720944_at) / RFU, VPS4B / Fold change vs veh, VPS4B / RFU, CREB1 / Fold change vs veh, CREB1 / RFU, DNAJC13 / Fold change vs veh, DNAJC13 / RFU, GNAQ / Fold change vs veh, GNAQ / RFU, CDK5R1 / Fold change vs veh, CDK5R1 / RFU, ZRANB3 / Fold change vs veh, ZRANB3 / RFU, CUL4A / Fold change vs veh, CUL4A / RFU, CCNY / Fold change vs veh, CCNY / RFU, UFL1 / Fold change vs veh, UFL1 / RFU, COG3 / Fold change vs veh, COG3 / RFU, DIAPH2 / Fold change vs veh, DIAPH2 / RFU, SKA2 / Fold change vs veh, SKA2 / RFU, AFF3 / Fold change vs veh, AFF3 / RFU, LMF1 / Fold change vs veh, LMF1 / RFU, IPO11 / Fold change vs veh, IPO11 / RFU, DFFB / Fold change vs veh, DFFB / RFU, FOXP1 / Fold change vs veh, FOXP1 / RFU, CARD8 / Fold change vs veh, CARD8 / RFU, STRN3 / Fold change vs veh, STRN3 / RFU, ADK / Fold change vs veh, ADK / RFU, RASSF2 / Fold change vs veh, RASSF2 / RFU, WIPF1 / Fold change vs veh, WIPF1 / RFU, LARP1B / Fold change vs veh, LARP1B / RFU, RASA1 / Fold change vs veh, RASA1 / RFU, RB1 / Fold change vs veh, RB1 / RFU, PPFIA1 / Fold change vs veh, PPFIA1 / RFU, MAT2A / Fold change vs veh, MAT2A / RFU, CCT5 / Fold change vs veh, CCT5 / RFU, WDR92 / Fold change vs veh, WDR92 / RFU, CUX1 / Fold change vs veh, CUX1 / RFU, TTC7A / Fold change vs veh, TTC7A / RFU, TMEM135 / Fold change vs veh, TMEM135 / RFU, DEPTOR / Fold change vs veh, DEPTOR / RFU, CPM / Fold change vs veh, CPM / RFU, DNAJB6 / Fold change vs veh, DNAJB6 / RFU, CACNA2D3 / Fold change vs veh, CACNA2D3 / RFU, DTX4 / Fold change vs veh, DTX4 / RFU, TFCP2 / Fold change vs veh, TFCP2 / RFU, GMCL1 /// GMCL1P1 / Fold change vs veh, GMCL1 /// GMCL1P1 / RFU, AEBP2 / Fold change vs veh, AEBP2 / RFU, SNHG1 /// SNORD22 /// SNORD25 /// SNORD26 /// SNORD27 /// SNORD28 /// SNORD29 /// SNORD31 / Fold change vs veh, SNHG1 /// SNORD22 /// SNORD25 /// SNORD26 /// SNORD27 /// SNORD28 /// SNORD29 /// SNORD31 / Fold change (Aza/veh), C12orf56 (ProbeSet 11735607_a_at) / Fold change (ACY-1035/veh), C12orf56 (ProbeSet 11735607_a_at) / Fold change (Aza/veh), FGFR1OP (ProbeSet 11751329_s_at) / Fold change (ACY-1035/veh), FGFR1OP (ProbeSet 11751329_s_at) / Fold change (Aza/veh), VPS36 (ProbeSet 11739960_a_at) / Fold change (ACY-1035/veh), VPS36 (ProbeSet 11739960_a_at) / RFU SYPL1 (11715823_x_at) / Fold change /veh SYPL1 (11715823_x_at) / RFU IGFBP7 (11715501_s_at) / Fold change /veh IGFBP7 (11715501_s_at) / RFU REEP3 (11722064_at) / Fold change /veh REEP3 (11722064_at) / RFU IGLL1 (11728026_x_at) / Fold change /veh IGLL1 (11728026_x_at): dose or concentration left out as unconfirmed
Conditions: ProbeSet 11719817_x_at; LIST B

## Nc1ncn([C@@H]2O[C@H](CO)[C@@H](O)[C@H]2O)c(=O)n1 [azacitidine]
  Fold change vs veh, BET1: 0.89
